Assay results taken from PubChem BioAssay AID2060483 (Molecular Pharmacology Branch, DTP, NCI, 2025).
pIC50: −log10 of the molar value.

Tested on: K24384-001-R-PDC complex spheroids, viability
Experiment: Anticancer human tumor K24384-001-R-PDC patient-derived pancreatic adenocarcinoma cell line growth inhibition [GQUAD]
Conditions: for pIC50: curve of first compound; for viability, T/C: stronger effect = lower value
Procedure, shortened: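 Tumor cells were grown as complex spheroids with HUVEC endothelial cells and mesenchymal stem cells as stroma. G-quadruplex stabilizers were combined with targeted agents over half-log dilutions from near the clinical Cmax, or from 10 microM.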

[1] = second compound 0.0316 µM, first compound 0.0316 µM
[2] = second compound 0.0316 µM, first compound 0.316 µM
[3] = second compound 0.1 µM, first compound 0.0316 µM
[4] = second compound 0.1 µM, first compound 0.316 µM
[5] = second compound 0.316 µM, first compound 0.0316 µM
[6] = second compound 0.316 µM, first compound 0.316 µM
[7] = second compound 1 µM, first compound 0.0316 µM
[8] = second compound 1 µM, first compound 0.316 µM
[9] = second compound 3.16 µM, first compound 0.0316 µM
[10] = second compound 3.16 µM, first compound 0.316 µM
[11] = second compound 10 µM, first compound 0.0316 µM
[12] = second compound 10 µM, first compound 0.316 µM
[13] = second compound 0.0316 µM, first compound 0.1 µM
[14] = second compound 0.0316 µM, first compound 1 µM
[15] = second compound 0.0316 µM, first compound 3.16 µM
[16] = second compound 0.0316 µM, first compound 10 µM
[17] = second compound 0.1 µM, first compound 0.1 µM
[18] = second compound 0.1 µM, first compound 1 µM
[19] = second compound 0.1 µM, first compound 3.16 µM
[20] = second compound 0.1 µM, first compound 10 µM
[21] = second compound 0.316 µM, first compound 0.1 µM
[22] = second compound 0.316 µM, first compound 1 µM
[23] = second compound 0.316 µM, first compound 3.16 µM
[24] = second compound 0.316 µM, first compound 10 µM
[25] = second compound 1 µM, first compound 0.1 µM
[26] = second compound 1 µM, first compound 1 µM
[27] = second compound 1 µM, first compound 3.16 µM
[28] = second compound 1 µM, first compound 10 µM
[29] = second compound 3.16 µM, first compound 0.1 µM
[30] = second compound 3.16 µM, first compound 1 µM
[31] = second compound 3.16 µM, first compound 3.16 µM
[32] = second compound 3.16 µM, first compound 10 µM
[33] = second compound 10 µM, first compound 0.1 µM
[34] = second compound 10 µM, first compound 1 µM
[35] = second compound 10 µM, first compound 3.16 µM
[36] = second compound 10 µM, first compound 10 µM
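Further: spheroids exposed to compounds for seven days.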

## CC[C@@]1(O)C(=O)OCc2c1cc1n(c2=O)Cc2cc3c(CN(C)C)c(O)ccc3nc2-1 + Cc1cnc(CNC(=O)c2c(=O)c3ccc(N4CCCN(C)CC4)nc3n3c2sc2ccccc23)cn1
Second compound 0.0316 µM
  pIC50: < 6.50
Second compound 0.1 µM
  pIC50: 6.67
Second compound 0.316 µM
  pIC50: 6.86
Second compound 1 µM
  pIC50: > 9.00
Second compound 3.16 µM
  pIC50: > 9.00
Second compound 10 µM
  pIC50: > 9.00
Second compound 0.0316 µM, first compound 0.000999 µM
  viability, T/C: 96.3%
Second compound 0.0316 µM, first compound 0.00316 µM
  viability, T/C: 71.1%
Second compound 0.0316 µM, first compound 0.00999 µM
  viability, T/C: 105%
[1]
  viability, T/C: 64.1%
Second compound 0.0316 µM, first compound 0.0999 µM
  viability, T/C: 58.5%
[2]
  viability, T/C: 44.1%
Second compound 0.1 µM, first compound 0.000999 µM
  viability, T/C: 64.1%
Second compound 0.1 µM, first compound 0.00316 µM
  viability, T/C: 69%
Second compound 0.1 µM, first compound 0.00999 µM
  viability, T/C: 64.8%
[3]
  viability, T/C: 58%
Second compound 0.1 µM, first compound 0.0999 µM
  viability, T/C: 56.5%
[4]
  viability, T/C: 47.1%
Second compound 0.316 µM, first compound 0.000999 µM
  viability, T/C: 56.1%
Second compound 0.316 µM, first compound 0.00316 µM
  viability, T/C: 55.2%
Second compound 0.316 µM, first compound 0.00999 µM
  viability, T/C: 47.8%
[5]
  viability, T/C: 49.9%
Second compound 0.316 µM, first compound 0.0999 µM
  viability, T/C: 60.3%
[6]
  viability, T/C: 39.8%
Second compound 1 µM, first compound 0.000999 µM
  viability, T/C: 40.7%
Second compound 1 µM, first compound 0.00316 µM
  viability, T/C: 51.3%
Second compound 1 µM, first compound 0.00999 µM
  viability, T/C: 36.5%
[7]
  viability, T/C: 42.7%
Second compound 1 µM, first compound 0.0999 µM
  viability, T/C: 46%
[8]
  viability, T/C: 37.6%
Second compound 3.16 µM, first compound 0.000999 µM
  viability, T/C: 34.8%
Second compound 3.16 µM, first compound 0.00316 µM
  viability, T/C: 39.1%
Second compound 3.16 µM, first compound 0.00999 µM
  viability, T/C: 34.3%
[9]
  viability, T/C: 39.6%
Second compound 3.16 µM, first compound 0.0999 µM
  viability, T/C: 40.5%
[10]
  viability, T/C: 30%
Second compound 10 µM, first compound 0.000999 µM
  viability, T/C: 34.1%
Second compound 10 µM, first compound 0.00316 µM
  viability, T/C: 22.9%
Second compound 10 µM, first compound 0.00999 µM
  viability, T/C: 36.3%
[11]
  viability, T/C: 38.4%
Second compound 10 µM, first compound 0.0999 µM
  viability, T/C: 21.2%
[12]
  viability, T/C: 0.39%

## COc1cc(C2c3cc4c(cc3C(OC3OC5COC(C)OC5C(O)C3O)C3COC(=O)C23)OCO4)cc(OC)c1O (stereo not drawn) + Cc1cnc(CNC(=O)c2c(=O)c3ccc(N4CCCN(C)CC4)nc3n3c2sc2ccccc23)cn1
Second compound 0.0316 µM
  pIC50: 6.06
Second compound 0.1 µM
  pIC50: 5.62
Second compound 0.316 µM
  pIC50: 7.50
Second compound 1 µM
  pIC50: > 7.50
Second compound 3.16 µM
  pIC50: > 7.50
Second compound 10 µM
  pIC50: > 7.50
[1]
  viability, T/C: 79.9%
[13]
  viability, T/C: 71.2%
[2]
  viability, T/C: 99.5%
[14]
  viability, T/C: 45.1%
[15]
  viability, T/C: 45.3%
[16]
  viability, T/C: 25.9%
[3]
  viability, T/C: 62.1%
[17]
  viability, T/C: 68.8%
[4]
  viability, T/C: 61.3%
[18]
  viability, T/C: 57.5%
[19]
  viability, T/C: 47.8%
[20]
  viability, T/C: 34.1%
[5]
  viability, T/C: 46.1%
[21]
  viability, T/C: 51.4%
[6]
  viability, T/C: 46%
[22]
  viability, T/C: 46.4%
[23]
  viability, T/C: 52.4%
[24]
  viability, T/C: 34.8%
[7]
  viability, T/C: 35.1%
[25]
  viability, T/C: 49.1%
[8]
  viability, T/C: 38.1%
[26]
  viability, T/C: 46%
[27]
  viability, T/C: 43.4%
[28]
  viability, T/C: 30.8%
[9]
  viability, T/C: 36.3%
[29]
  viability, T/C: 44.9%
[10]
  viability, T/C: 41.2%
[30]
  viability, T/C: 47.1%
[31]
  viability, T/C: 39%
[32]
  viability, T/C: 26%
[11]
  viability, T/C: 30.4%
[33]
  viability, T/C: 28.1%
[12]
  viability, T/C: 32.3%
[34]
  viability, T/C: 33%
[35]
  viability, T/C: 10.4%
[36]
  viability, T/C: 0.63%

## COc1cccc2c1C(=O)c1c(O)c3c(c(O)c1C2=O)CC(O)(C(=O)CO)CC3OC1CC(N)C(O)C(C)O1 (stereo not drawn) + Cc1cnc(CNC(=O)c2c(=O)c3ccc(N4CCCN(C)CC4)nc3n3c2sc2ccccc23)cn1
Second compound 0.0316 µM
  pIC50: 6.55
Second compound 0.1 µM
  pIC50: 6.78
Second compound 0.316 µM
  pIC50: 7.07
Second compound 1 µM
  pIC50: > 7.50
Second compound 3.16 µM
  pIC50: > 7.50
Second compound 10 µM
  pIC50: > 7.50
[1]
  viability, T/C: 74.3%
[13]
  viability, T/C: 62.1%
[2]
  viability, T/C: 50.3%
[14]
  viability, T/C: 17.6%
[15]
  viability, T/C: 5.43%
[16]
  viability, T/C: 5.41%
[3]
  viability, T/C: 71.2%
[17]
  viability, T/C: 55%
[4]
  viability, T/C: 42.7%
[18]
  viability, T/C: 18.8%
[19]
  viability, T/C: 6.08%
[20]
  viability, T/C: 5.63%
[5]
  viability, T/C: 58.2%
[21]
  viability, T/C: 48%
[6]
  viability, T/C: 33.3%
[22]
  viability, T/C: 20.6%
[23]
  viability, T/C: 4.64%
[24]
  viability, T/C: 6.62%
[7]
  viability, T/C: 35.4%
[25]
  viability, T/C: 46.6%
[8]
  viability, T/C: 35.1%
[26]
  viability, T/C: 19.4%
[27]
  viability, T/C: 2.42%
[28]
  viability, T/C: 3.74%
[9]
  viability, T/C: 40%
[29]
  viability, T/C: 44.3%
[10]
  viability, T/C: 36.1%
[30]
  viability, T/C: 18.7%
[31]
  viability, T/C: 0.26%
[32]
  viability, T/C: 1.49%
[11]
  viability, T/C: 33.3%
[33]
  viability, T/C: 25.9%
[12]
  viability, T/C: 24.4%
[34]
  viability, T/C: 0.41%
[35]
  viability, T/C: 0.26%
[36]
  viability, T/C: 0.2%

## Nc1ccn(C2OC(CO)C(O)C2(F)F)c(=O)n1 (stereo not drawn) + Cc1cnc(CNC(=O)c2c(=O)c3ccc(N4CCCN(C)CC4)nc3n3c2sc2ccccc23)cn1
Second compound 0.0316 µM
  pIC50: 6.37
Second compound 0.1 µM
  pIC50: 6.40
Second compound 0.316 µM
  pIC50: > 7.50
Second compound 1 µM
  pIC50: > 7.50
Second compound 3.16 µM
  pIC50: > 7.50
Second compound 10 µM
  pIC50: > 7.50
[1]
  viability, T/C: 68%
[13]
  viability, T/C: 64.8%
[2]
  viability, T/C: 58.6%
[14]
  viability, T/C: 26.7%
[15]
  viability, T/C: 28.4%
[16]
  viability, T/C: 22.3%
[3]
  viability, T/C: 52.5%
[17]
  viability, T/C: 54%
[4]
  viability, T/C: 56.3%
[18]
  viability, T/C: 32.5%
[19]
  viability, T/C: 27.2%
[20]
  viability, T/C: 20.9%
[5]
  viability, T/C: 45.8%
[21]
  viability, T/C: 45.6%
[6]
  viability, T/C: 38.3%
[22]
  viability, T/C: 36.9%
[23]
  viability, T/C: 32.2%
[24]
  viability, T/C: 17.6%
[7]
  viability, T/C: 40.7%
[25]
  viability, T/C: 43.5%
[8]
  viability, T/C: 39.7%
[26]
  viability, T/C: 41%
[27]
  viability, T/C: 31.8%
[28]
  viability, T/C: 16.2%
[9]
  viability, T/C: 41.3%
[29]
  viability, T/C: 43.1%
[10]
  viability, T/C: 32.3%
[30]
  viability, T/C: 36%
[31]
  viability, T/C: 33.8%
[32]
  viability, T/C: 12.2%
[11]
  viability, T/C: 29.4%
[33]
  viability, T/C: 19.3%
[12]
  viability, T/C: 28.6%
[34]
  viability, T/C: 19.8%
[35]
  viability, T/C: 0.34%
[36]
  viability, T/C: 0.27%
